From ChEMBL document CHEMBL2331085, “Identification of Tetrahydropyrido[4,3-d]pyrimidine Amides as a New Class of Orally Bioavailable TGR5 Agonists” (ACS Med Chem Lett, 2013) come the findings set out here.

Data set [1] is described as follows: Lipophilicity, log D of the compound by shake-flask method. Conditions: octanol/water. In kind it is physicochemical.
The nature of data set [2]: Oral bioavailability in dog. Conditions: in vivo. In kind it is ADME, organism-based, Canis lupus familiaris.
The nature of data set [3]: Half life in dog at 1 mg/kg, iv and 3 mg/kg, po. In kind it is ADME, organism-based, Canis lupus familiaris. Conditions: in vivo.
Data set [4] in a line: Clearance in dog at 1 mg/kg, iv and 3 mg/kg, po. To be noted: in vivo. In kind it is ADME, organism-based, Canis lupus familiaris.
The nature of data set [5]: Volume of distribution at steady state in dog at 1 mg/kg, iv and 3 mg/kg, po. In kind it is ADME, organism-based, Canis lupus familiaris. Conditions: in vivo, read-out: Vdss.
The nature of data set [6]: Permeability from basolateral to apical side of MDCK cells expressing MDR1. In kind it is ADME, cell-based, Canis lupus familiaris. To be noted: dog.
Data set [7] is described as follows: Permeability from apical to basolateral side of MDCK cells expressing MDR1. In kind it is ADME, cell-based, Canis lupus familiaris. To be noted: dog.

The compound `CCc1nnn(-c2ccccc2)c1C(=O)N(C)c1ccc(Cl)cc1` displayed a logD in data set [1] of 2.9.

In data set [1], `CC[C@H]1[C@@H](O)[C@@H]2[C@H](C[C@H](O)[C@]3(C)[C@@H]([C@H](C)C[C@H](C)C(=O)O)CC[C@@H]23)[C@@]2(C)CCC(O)C[C@@H]12` (single isomer, unassigned) returned a logD of 1.85.

`Cc1ccc(N(C)C(=O)c2c(-c3ccccc3Cl)noc2C)cc1Cl` displayed a logD in data set [1] of 3.9.

On to `CCNc1nc2c(c(C(N)=O)n1)CN(C(=O)CCc1ccc(CC)cc1)CC2`, for which the logD in data set [1] was 2.4.

As for `CCNc1nc2c(c(C(N)=O)n1)CN(C(=O)CCc1ccc(C(C)(F)F)cc1)CC2`, the logD in data set [1] was determined as 2.2.

On to `CCNc1nc2c(c(C(N)=O)n1)CN(C(=O)CCc1ccc(OC(F)(F)F)cc1)CC2`, for which the bioavailability in data set [2] stood at 41%. Besides, the half-life in data set [3] is 50.4 min. In addition, the clearance in data set [4] worked out at 8.05 mL/min/kg. Moreover, the Vd in data set [5] came to 0.43 L/kg. In data set [6], this compound displayed a Papp B→A of 19.2 ×10⁻⁶ cm/s. Further, the Papp A→B in data set [7] was found to be 12.4 ×10⁻⁶ cm/s. This compound came in with a logD in data set [1] of 3.

Turning to `COc1ccc2cc(CNCCc3ccc(Br)cc3)c(-c3ccsc3)nc2c1`, the logD in data set [1] was 5.1.

Compound `CCOc1nc2c(c(C(N)=O)n1)CN(C(=O)CCc1ccc(OC(F)(F)F)cc1)CC2` displayed a logD in data set [1] of 2.9.

Regarding `CCNc1nc2c(c(C(N)=O)n1)CN(C(=O)CCc1ccc(CC(F)(F)F)cc1)CC2`, the logD in data set [1] is 2.6.

The compound `CCNc1nc2c(c(C(N)=O)n1)CN(C(=O)CCc1ccc(SC(F)(F)F)cc1)CC2` came in with a logD in data set [1] of 3.5.

`CCNc1nc2c(c(C(N)=O)n1)CN(C(=O)CCc1ccc(C(C)(F)F)nc1)CC2` showed a logD in data set [1] of 1.4.

`CCNc1nc2c(c(C(N)=O)n1)CN(C(=O)CCc1ccc(OC)cc1)CC2` gave a logD in data set [1] of 1.05.

The compound `NC(=O)c1nc(C2CC2)nc2c1CN(C(=O)CCc1ccc(OC(F)(F)F)cc1)CC2` came in with a logD in data set [1] of 3.3.

`CCc1nc2c(c(C(N)=O)n1)CN(C(=O)CCc1ccc(OC(F)(F)F)cc1)CC2` registered a logD in data set [1] of 2.9.

The compound `CCNc1nc2c(c(C(N)=O)n1)CN(C(=O)CCc1ccc(C(C)C)cc1)CC2` displayed a log distribution coefficient (logD) in data set [1] of 3.4.

The compound `CCNc1nc2c(c(C(N)=O)n1)CN(C(=O)CCc1ccccc1)CC2` showed a logD in data set [1] of 1.4.

As a reminder, the logD is lipophilicity at a set pH, counting ionised and neutral species. Broadly, the bioavailability is dose-corrected exposure relative to a reference, in per cent. Read a high bioavailability as much systemic uptake. For orientation: half-life means the time needed for the level to fall by half in the phase considered. The low end stands for fast loss, the high end for slow loss. In general, Papp B→A refers to how fast a substance crosses the layer from the basolateral side. Usually Papp A→B stands for how fast a substance crosses the layer from the apical side. High values mean fast passage, low ones slow passage.
